# Paper PMC4102931 (Investigational new drugs, 2010)
# Like-named read-outs stand apart in the source and are kept apart here. Marks after values point to notes of the source that are not given here.
# Experiments:
# [1] = human, in vivo
# clinical = conditions: human, in vivo
# [2] = Chemotherapy pharmacokinetics alone; conditions: for Change in the geometric mean chemotherapy pharmacokinetic parameters when given alone or in combination with cediranib: limited pharmacokinetic data; for AUC / Cmax: alone (cycle 1, day 1), geometric mean (CV%)
# [3] = system: patients with advanced solid tumors; test: Safety and tolerability: adverse events graded by NCI CTC version 3.0; format: in vivo, human
# [4] = system: patients with advanced solid tumors; test: Dose-limiting toxicities and maximum tolerated dose; format: in vivo, human; conditions: for MTD of cediranib: once-daily oral
# [5] = Steady-state pharmacokinetics of cediranib given with chemotherapy; format: in vivo, human; conditions: for Css,max / AUC: geometric mean (CV%); for AUC / Tmax: human, plasma, oral; for AUC: AUCss; for Tmax: median (range)
# advanced solid tumors = test: Tumor response evaluation; format: in vivo, human
# [6] = ref Trial 2171IL0001, cited from earlier work; for Tmax: median (range)
# [7] = system: patients with a broad range of advanced solid tumors; conditions: cited from earlier work
# [8] = system: patients with advanced CRC; conditions: previous phase I study; cited from earlier work
# [9] = all arms, cediranib with chemotherapy
# [10] = 20 mg, Arm 1 (with mFOLFOX6), cediranib 20 mg, n=5
# [11] = 20 mg, Arm 3A (with irinotecan), cediranib 20 mg, n=5
# [12] = 20 mg, Arm 3B (with irinotecan and cetuximab), cediranib 20 mg, n=3
# [13] = 30 mg, Arm 2 (with docetaxel), cediranib 30 mg, n=8
compound,measurement,setting,value
O=c1[nH]cc(F)c(=O)[nH]1 [5-FU],Cmax,[1],544 (72.9) ng/mL
CC(=O)O[C@@]12CO[C@@H]1C[C@H](O)[C@@]1(C)C(=O)[C@H](O)C3=C(C)[C@@H](OC(=O)[C@H](O)[C@@H](NC(=O)OC(C)(C)C)c4ccccc4)C[C@@](O)([C@@H](OC(=O)c4ccccc4)[C@H]21)C3(C)C [Docetaxel],AUC,clinical; AUC,3770 ng·h/mL
CCc1c2c(nc3ccc(OC(=O)N4CCC(N5CCCCC5)CC4)cc13)-c1cc3c(c(=O)n1C2)COC(=O)[C@]3(O)CC [Irinotecan],Cmax,[1],3040 (18.3) ng/mL
same,Cmax,clinical; Cmax,3290 ng/mL
"O=C1[O][Pt]2([NH][C@@H]3CCCC[C@H]3[NH]2)[O]C1=O [Oxaliplatin, reference compound]",Change in the geometric mean chemotherapy pharmacokinetic parameters when given alone or in combination with cediranib,[2],< 2 fold
Nc1nc2[nH]cc(CCc3ccc(C(=O)N[C@@H](CCC(=O)O)C(=O)O)cc3)c2c(=O)[nH]1 [Pemetrexed],AUC,[1],295 (37.7)^e u.g.h/mL
same,Cmax,[1],180 (14.2)^e u.g/mL
CCc1c2c(nc3ccc(O)cc13)-c1cc3c(c(=O)n1C2)COC(=O)[C@]3(O)CC [SN38],AUC,[2]; Arm 3A,595 (53.5) ng/mL•h
same,Cmax,[2]; Arm 3A,35.4 (50.1) ng/mL
same,AUC,[2]; Arm 3B (with cetuximab),482 (22.3) ng/mL•h
same,Cmax,[2]; Arm 3B (with cetuximab),29.1 (21.0) ng/mL
same,Change in the geometric mean chemotherapy pharmacokinetic parameters when given alone or in combination with cediranib,[2],< 2 fold
"COc1cc2c(Oc3ccc4[nH]c(C)cc4c3F)ncnc2cc1OCCCN1CCCC1 [cediranib, Cediranib]",Serious adverse events of hypertension,[3]; across all arms,Three
same,CTC grade 1 hypertension,"[3]; across all arms, n=59",21 patients
same,CTC grade 3 hypertension,"[3]; across all arms, n=59",three
same,CTC grade 3 leukopenia,"[3]; across all arms, n=59",nine
same,CTC grade 3 neutropenia,"[3]; across all arms, n=59",11 patients
same,CTC grade 3 or 4 diarrhea of any causality,"[3]; across all arms, n=59",12 patients
same,CTC grade 3 or 4 fatigue of any causality,"[3]; across all arms, n=59",16 patients
same,CTC grade 3 or 4 leukopenia of any causality,"[3]; across all arms, n=59",13 patients
same,CTC grade 3 or 4 neutropenia of any causality,"[3]; across all arms, n=59",19 patients
same,CTC grade 4 leukopenia,"[3]; across all arms, n=59",four
same,CTC grade 4 neutropenia,"[3]; across all arms, n=59",8 patients
same,Serious adverse event: fatigue,"[3]; across all arms, number (%)",16 (27%) patients
same,Serious adverse event: leukopenia,"[3]; across all arms, number (%)",12 (20%) patients
same,Serious adverse event: neutropenia,"[3]; across all arms, number (%)",18 (30%) patients
same,Patients discontinued due to diarrhea,[3]; across the study,three
same,Patients discontinued due to fatigue,[3]; across the study,two
same,"Abdominal pain, any grade (%), Total (n=59)",[3]; [9],16 (27%)
same,"Alopecia, any grade (%), Total (n=59)",[3]; [9],15 (25%)
same,"Anorexia, any grade (%), Total (n=59)",[3]; [9],25 (42%)
same,"Decreased weight, any grade (%), Total (n=59)",[3]; [9],21 (36%)
same,"Dehydration, any grade (%), Total (n=59)",[3]; [9],19 (32%)
same,"Dyspnea, any grade (%), Total (n=59)",[3]; [9],18 (31%)
same,"Headache, any grade (%), Total (n=59)",[3]; [9],16 (27%)
same,"Leukopenia, any grade (%), Total (n=59)",[3]; [9],20 (34%)
same,"Nausea, any grade (%), Total (n=59)",[3]; [9],36 (61%)
same,"Neutropenia, any grade (%), Total (n=59)",[3]; [9],27 (46%)
same,"Vomiting, any grade (%), Total (n=59)",[3]; [9],30 (51%)
same,Adverse events of proteinuria (all CTC grade 1 or 2),[3]; all study arms except arm 4,Seven
same,Increases in blood TSH above the normal range (> 5 mU/L),[3]; overall,26 patients
same,Neutrophil counts of less than 1×10^9/L,"[3]; overall, n=59",Fourteen
same,Patients discontinuing due to adverse events,"[3]; total, number (%)",12 (20%) patients
same,MTD of cediranib,[4]; in combination with docetaxel (arm 2),30 mg
same,MTD of cediranib according to the protocol definition,[4]; in combination with irinotecan and cetuximab,20 mg
same,MTD of cediranib,[4]; in combination with irinotecan,20 mg
same,MTD of cediranib,[4]; in combination with mFOLFOX6,20 mg
same,MTD of cediranib,[4]; in combination with pemetrexed (arm 4),30 mg
same,"Css,max","[5]; Arm 1 (with mFOLFOX6), cediranib 20 mg, n=5",65.3 (86.2) ng/mL
same,"Css,max","[5]; Arm 2 (with docetaxel), cediranib 30 mg, n=8",62.5 (53.3) ng/mL
same,"Css,max","[5]; Arm 3A (with irinotecan), cediranib 20 mg, n=5",76.0 (57.6) ng/mL
same,"Css,max","[5]; Arm 3B (with irinotecan and cetuximab), cediranib 20 mg, n=3",50.9 (126) ng/mL
same,"Css,max","[5]; Arm 4 (with pemetrexed), cediranib 30 mg, n=4",74.9 (31.6) ng/mL
same,AUC,[5]; [10],986 ng·h/mL
same,AUC,[5]; [11],1010 ng·h/mL
same,AUC,[5]; [12],668 ng·h/mL
same,Tmax,[5]; [10],4 h
same,Tmax,[5]; [11],2.1 h
same,Tmax,[5]; [12],4 h
same,AUC,[5]; [13],1100 ng·h/mL
same,Tmax,[5]; [13],5 h
same,"Partial tumor responses, all arms","advanced solid tumors; 46 patients with efficacy data, 35 evaluable by RECIST",four
same,Median duration of treatment of the four patients with partial response,advanced solid tumors; range 154-384,319 days
same,"Css,max","[6]; single-agent cediranib 20 mg, multiple once-daily oral doses, n=11, geometric mean (CV%)",66.6 (52.9) ng/mL
same,AUCss,"[6]; single-agent cediranib 20 mg, n=11, geometric mean (CV%)",774 (51.6) ng/mL•h
same,Tmax,"[6]; single-agent cediranib 20 mg, n=11","3.0 (2.0, 6.4) h"
same,AUCss,"[6]; single-agent cediranib 30 mg, n=12, geometric mean (CV%)",741 (48.7) ng/mL•h
same,Tmax,"[6]; single-agent cediranib 30 mg, n=12","2.1 (1.0, 4.0) h"
same,Doses at which cediranib monotherapy was generally well tolerated,[7],≤ 45 mg/day
same,Recommended phase II dose in combination with mFOLFOX6,[8],30 mg/day
